Data on three molecules can be found in US20190328845A1, “IN VIVO SYNTHESIS OF ELASTIC FIBER” (ALLERGAN PHARMACEUTICALS INTERNATIONAL LIMITED, priority 2011, published 2019).

The test system of one assay is Dermal human fibroblasts. The experiment in a line: Elastic fiber formation in the presence of lysyl oxidase inhibitor. To be noted: BAPN added at various time points relative to tropoelastin addition; 72 hours culture. It is filed as cell-based. The procedure: The effect of the lysyl oxidase inhibitor BAPN on elastic fiber formation in this system was studied.
Dermal human fibroblasts were grown for 12 days prior to tropoelastin addition as described. Cells were cultured for a further 72 hours after tropoelastin addition. BAPN was added at various time points relative to tropoelastin addition. Samples were stained for elastin and nuclei as described above.

Another assay deals with human skin fibroblasts. The experiment in a line: In vitro assay system for elastic fiber synthesis, human skin fibroblasts. It is filed as cell-based. To be noted: 7 days. On the procedure: Cells were cultured in Dulbecco's Modified Eagle Medium High Glucose (DMEM; Invitrogen) containing 10% fetal bovine serum (FBS; Invitrogen) and 1% (v/v) penicillin/streptomycin (Invitrogen). Media were changed every 2-3 days. Cells were incubated at 37° C. and 5% CO2. To assess the capacity of cells to form elastin fibers 1×10^5 cells were seeded onto glass coverslips in 12 well culture plates. Ten to 17 days post-seeding full-length tropoelastin (Elastagen), or an alternative elastin-derived protein, in PBS was filter-sterilized and added to the cell cultures. Alternative elastin-derived proteins included human skin elastin peptides (Elastin Products Company; HSP72), a C-terminal tropoelastin deletion construct ARKRK (Weiss lab) and a C-terminal tropoelastin substitution construct containing RGDS (Weiss lab). Fiber formation was also assessed in the presence of 50 μM blebbistatin (Sigma). For experiments assessing the effect of repeated tropoelastin additions the protein was added 10, 17 and 24 days post-seeding. Cell matrix thickness was determined by averaging the number of 0.41 μm z slices required to image from the uppermost nuclei to the bottom of the sample in ten randomly chosen fields of view.
At set time points after tropoelastin addition, cells were fixed with either 3% (w/v) formaldehyde or 4% (w/v) paraformaldehyde for 20 min and quenched with 0.2 M glycine. […]

Consider `N#CCCN` [BAPN], for which the “elastic fiber formation in the presence of BAPN” value with Dermal human fibroblasts is given as “prevents fiber formation”.

As to `Cc1ccc2c(c1)C(=O)C1(O)CCN(c3ccccc3)C1=N2` (stereo not drawn) [blebbistatin], the “elastin fiber formation in the presence of blebbistatin” value in the assay with human skin fibroblasts (50 μM blebbistatin added at the same time as 125 μg/ml tropoelastin, neonatal fibroblasts) is recorded as “substantially impaired”.

With +RGDS, the elastin network formation result in the assay with human skin fibroblasts (125 μg/ml protein added to primary human neonatal skin fibroblasts (NHF8909) 12 days post-seeding) is “Spherule rather than fiber deposition”.
